Assay [1] addresses T1, FXR-LBD (Homo sapiens, UniProt Q96RI1).
T1 construct: Add 5 μl of 4×FXR-LBD to 384 well assay plates; purchased
T1 sequence (Q96RI1 262-486 limits assumed): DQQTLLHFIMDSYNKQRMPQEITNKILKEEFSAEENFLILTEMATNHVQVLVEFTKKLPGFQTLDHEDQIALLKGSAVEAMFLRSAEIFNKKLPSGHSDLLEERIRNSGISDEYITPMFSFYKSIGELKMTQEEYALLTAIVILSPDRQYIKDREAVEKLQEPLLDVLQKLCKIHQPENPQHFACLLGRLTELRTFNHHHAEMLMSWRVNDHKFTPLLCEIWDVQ
As to the kind of experiment: FXR Coactivator Assay (LanthaScreen TR-FRET). The class given is biochemical. The procedure:
(§1) • 1. Hek293T cells were plated at 1.1*10^6/ml into a 100 mm dish. • 2. […] Cells were incubated at 37° C. under 5% CO2 atmosphere. • 3. All of compounds were 3-fold serial diluted from 10 mM stock for 10 doses in DMSO. • 4. Transfer compound dilutions into 384 well assay plates using liquid workstation. • 5. Seed 25 ul HEK293T cells into 384 well assay plate (prepared step 4) at 0.6*10^5/ml. Cells were incubated at 37° C. under 5% CO2 atmosphere overnight. • 6. Add 25 ul steady-Glo™ Luciferase Assay Reagent into each well of 384-well assay plate. • 7. […] Calculate EC50 by fitting % Activity values and log of compound concentrations to nonlinear regression (dose response−variable slope) with Graphpad 5.0. FXR Coactivator Assay Reagents: LanthaScreen™ TR-FRET Farnesoid X Receptor Coactivator Assay GW4064 as a positive control Process: • 1. All of compounds were 3-fold serial diluted from 10 mM stock for 10 doses in DMSO. • 2. Dilute each 100× agonist serial dilution to 2× using Complete Coregulator buffer G. • 3. Transfer 10 μl of each of the 2× agonist serial dilutions to 384 well assay plates. • 4. Add 5 μl of 4×FXR-LBD to 384 well assay plates. • 5. […] Incubate at room temperature protected from light. • 7. […] Calculate EC50 by fitting % Activity values and log of compound concentrations to nonlinear regression (dose response−variable slope) with Graphpad 5.0.
On the technique in general: In TR-FRET formats the signal depends on donor and acceptor labels being close together.

For assay [2], the target named is T2, FXR (Homo sapiens, UniProt Q96RI1).
T2 construct: expressed in transfected cells; host or cells: HEK293T
T2 sequence (Q96RI1 1-486): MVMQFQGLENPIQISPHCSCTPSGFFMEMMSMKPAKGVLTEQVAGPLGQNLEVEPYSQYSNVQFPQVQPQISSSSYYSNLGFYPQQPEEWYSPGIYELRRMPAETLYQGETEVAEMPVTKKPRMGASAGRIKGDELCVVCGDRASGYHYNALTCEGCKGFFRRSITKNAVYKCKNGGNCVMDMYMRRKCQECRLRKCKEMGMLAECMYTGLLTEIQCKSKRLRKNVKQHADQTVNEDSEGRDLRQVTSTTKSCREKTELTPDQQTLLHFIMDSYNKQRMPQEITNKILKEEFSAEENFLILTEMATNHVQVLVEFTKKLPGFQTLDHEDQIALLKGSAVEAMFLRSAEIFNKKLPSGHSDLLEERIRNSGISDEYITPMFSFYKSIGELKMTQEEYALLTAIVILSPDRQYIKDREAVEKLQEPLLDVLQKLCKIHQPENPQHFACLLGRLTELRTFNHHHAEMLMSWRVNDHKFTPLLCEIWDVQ
Description: FXR Transactivation Assay (GAL4 luciferase reporter, pBIND-FXR in HEK293T). The class given is cell-based. Particulars: HEK293T cells. On the procedure:
FXR Transactivation Assay
pGL4.35 [luc2P/9XGAL4 UAS/Hygro]
Steady-Glo™ Luciferase Assay System
GW4064 as a positive control
as §1

The text below walks through data of US10919903B2, “Nitrogen-containing heterocyclic compounds as FXR modulators” (Hepagene Therapeutics (HK) Limited, priority 2016, dated 2021).

`COc1cc(C(=O)O)cc2sc(N3CCN(Cc4c(-c5c(Cl)cccc5Cl)noc4C(C)C)C(C)C3)nc12` (stereo not drawn) [II-24]: the EC50 in assay [1] and in assay [2] was 0.01 to 0.1 µM throughout. Turning to `COc1cc(C(=O)O)cc2sc(N3CCN(Cc4c(-c5c(Cl)cccc5Cl)noc4C(C)C)C(C)(C)C3)nc12` [II-22, 2-(4-[[3-(2,6-Dichlorophenyl)-5-(propan-2-yl)-1,2-oxazol-4-yl]methyl]-3,3-dimethylpiperazin-1-yl)-4-methoxy-1,3-benzothiazole-6-carboxylic acid], the EC50 (commonly the concentration at which the effect is half-maximal) in assay [1] is 0.01 to 0.1 µM; in assay [2] it was 0.101 to 0.4 µM.

In assay [1], `COc1cc(C(=O)O)cc2sc(C3CCN(Cc4c(-c5c(Cl)cccc5Cl)noc4C(C)C)CC3)nc12` [II-47, 2-(1-((3-(2,6-Dichlorophenyl)-5-isopropylisoxazol-4-yl)methyl)piperidin-4-yl)-4-methoxybenzo[d]thiazole-6-carboxylic acid] gave an EC50 of 0.101 to 0.4 µM. Still for that read-out and setting: with `COc1cc(C(=O)O)cc2sc(N3CC=C(Cc4c(-c5c(Cl)cccc5Cl)noc4C4CC4)C[C@H]3C)nc12` [II-46, 2-[(2R)-4-[[5-Cyclopropyl-3-(2,6-dichlorophenyl)-1,2-oxazol-4-yl]methyl]-2-methyl-1,2,3,6-tetrahydropyridin-1-yl]-4-methoxy-1,3-benzothiazole-6-carboxylic acid] the figure was 0.01 to 0.1 µM.

With `CC(C)c1cc(C(=O)O)cc2sc(N3CCN(Cc4c(-c5c(Cl)cccc5Cl)noc4C4CC4)C[C@H]3C)nc12` [VII-01, (R)-2-(4-((5-Cyclopropyl-3-(2,6-dichlorophenyl)isoxazol-4-yl)methyl)-2-methylpiperazin-1-yl)-4-isopropylbenzo[d]thiazole-6-carboxylic acid], the EC50 in assay [1] and in assay [2] was 0.01 to 0.1 µM in each case.

For `COc1cc(C(=O)O)cc2sc(N3CCN(Cc4c(-c5c(Cl)cccc5Cl)noc4C(C)C)CC3(C)C)nc12` [II-16], the EC50 lay within 0.01 to 0.1 µM in assay [1] and 0.101 to 0.4 µM in assay [2].

Turning to `COc1cc(C(=O)O)cc2sc(N3CCN(Cc4c(-c5c(Cl)cccc5Cl)noc4C4CC4)CC3C)nc12` (stereo not drawn) [II-13], the EC50 in assay [1] and in assay [2] was 0.01 to 0.1 µM throughout. With `COc1cc(C(=O)O)cc2sc(N3CCCN(Cc4c(-c5c(Cl)cccc5Cl)noc4C(C)C)CC3)nc12` [II-40], the figures for the EC50 in assay [1] and in assay [2] were 0.01 to 0.1 µM and 0.101 to 0.4 µM, respectively. Consider `COc1cc(C(=O)O)cc2sc(N3CCC(Cc4c(-c5c(Cl)cccc5Cl)noc4C(C)C)CC3)nc12` [II-43], for which the EC50 in assay [1] is 0.01 to 0.1 µM; in assay [2] it was 0.101 to 0.4 µM. In the case of `CCC1CN(Cc2c(-c3c(Cl)cccc3Cl)noc2C(C)C)CCN1c1nc2c(OC)cc(C(=O)O)cc2s1` (stereo not drawn) [II-18], the EC50 in assay [1] and in assay [2] was 0.01 to 0.1 µM in each case.

With `CCC1CN(c2nc3c(OC)cc(C(=O)O)cc3s2)CCN1Cc1c(-c2c(Cl)cccc2Cl)noc1C(C)C` (stereo not drawn) [II-20], the EC50 was in the range of 0.01 to 0.1 µM in assay [1] and 0.101 to 0.4 µM in assay [2]. Regarding `COc1cc(C(=O)O)cc2sc(N3CCN(Cc4c(-c5c(Cl)cccc5Cl)noc4C(C)C)C4(CC4)C3)nc12` [II-30], the EC50 fell in the range of 0.01 to 0.1 µM in assay [1] and 0.101 to 0.4 µM in assay [2]. For `COc1cc(C(=O)O)cc2sc(N3CCN(Cc4c(C(C)C)cnn4-c4c(Cl)cccc4Cl)CC3)nc12` [II-03, 2-(4-[[1-(2,6-Dichlorophenyl)-4-(propan-2-yl)-1H-pyrazol-5-yl]methyl]piperazin-1-yl)-4-methoxy-1,3-benzothiazole-6-carboxylic acid] the same measures were 0.01 to 0.1 µM and 0.101 to 0.4 µM. For the molecule `COc1cc(C(N)=O)cc2sc(N3CCN(Cc4c(-c5c(Cl)cccc5Cl)noc4C(C)C)CC3)nc12` [VIII-01], the concentration giving a half-maximal response (EC50) in assay [1] was 0.01 to 0.1 µM; in assay [2], 0.101 to 0.4 µM. Regarding `CC(C)c1onc(-c2c(Cl)cccc2Cl)c1CC1CCN(c2nc3c(F)cc(C(=O)O)cc3s2)CC1` [VI-11], in assay [2], the half-maximal effective concentration (EC50) was 0.401 to 5 µM. Same read-out and setting: with `COc1cc(C#N)cc2sc(N3CCN(Cc4c(-c5c(Cl)cccc5Cl)noc4C(C)C)CC3)nc12` [IX-01, 2-(4-((3-(2,6-Dichlorophenyl)-5-isopropylisoxazol-4-yl)methyl)piperazin-1-yl)-4-methoxybenzo[d]thiazole-6-carbonitrile] the figure was 0.401 to 5 µM; with `COc1cc(C(=O)O)cc2sc(N3CCN(Cc4c(-c5c(Cl)cccc5Cl)noc4C4CC4)C(C)(C)C3)nc12` [II-23], 0.401 to 5 µM.

For `COc1cc(C(=O)O)cc2sc(N3CCN(Cc4c(-c5c(Cl)cccc5Cl)noc4C4CC4)CC3C)nc12` (stereo not drawn) [II-11], the EC50 in assay [1] is 0.01 to 0.1 µM; in assay [2] it was 0.101 to 0.4 µM.

With `CC(C)c1onc(-c2c(Cl)cccc2Cl)c1CC1CCN(c2nc3ccc(C(=O)O)cc3s2)CC1` [III-08], the half-maximal effective concentration (EC50) in assay [2] was in the range of 0.401 to 5 µM. On the same count and under the same terms, with `COc1cc(C(=O)O)cc2sc(N3CCN(Cc4c(-c5c(Cl)cccc5Cl)noc4C(C)C)C(C(C)C)C3)nc12` (racemic) [II-29] the figure was 0.401 to 5 µM.
